Laboratory results published in patent US20240299591A1, “Antimicrobial Peptides and Their Use” (priority 2021, published 2024).
Converted amounts (≈) assume the structure as drawn. Where a SMILES comes first, the peptide text is derived from it. [ ]: non-standard residue; d: D form. The star is where a group is joined. X2 = O=C1OC2(c3ccc(O)cc3Oc3cc(O)ccc32)c2cccc(C(=O)*)c21

Key:
Format in all cases: cell-based
Aspergillus fumigatus = conditions: 24 h
Method: The assays were performed using Nunc 262162 U96 polystyrene round bottomed clear plates (www.nuncbrand.com).
(§1) When testing the peptides against A. fumigatus, peptides at different concentrations were mixed with A. fumigatus conidia to reach a final volume of 100 μL per well. The final conidial concentration was 5×10^5 cells/mL in 10% Vogel's medium. After 24 h of incubation at 37° C. in 96 well plates, fungal growth with the different peptide concentrations was determined by measurement of the optical density at 610 nm in a TriStar LB 941 Multimode Microplate Reader. The IC50 values were determined using four parameter logistic regression formula provided by Sigma Plot 10.0. Values are represented as means±SEM from two independent experiments (n=3).
(§2) The IC50 of the fluorescently labelled peptides cannot be accurately determined using the optical density method described in the last section. This is because the fluorophore structures absorbed light at 610 nm which was the wavelength used for the optical density measurements. In order to overcome this, the BacTiter-Glo™ Microbial Cell Viability Assay kit purchased from Promega was used. The BacTiter-Glo™ Reagent relies on the properties of a proprietary thermostable luciferase (Ultra-Glo™ Recombinant Luciferase) and a proprietary formulation for extracting ATP from fungal cells which will generates a ‘glow-type’ luminescent signal. This is produced by the luciferase reaction shown in Scheme 1, which has a signal half-life of over 30 min depending on the experimental conditions. The luminescent signal is proportional to the amount of ATP present, which is directly proportional to the number of living cells in culture.
(§3) The IC50 assays for all fluorescently labelled peptides were performed using Greiner CELLSTAR white polystyrene wells flat bottomed 96 well plates. The incubation conditions remained the same for the optical density measurement described in the previous section. Once the incubation procedure was finished, the plate was equilibrated to room temperature. A mixture of BacTiter-Glo™ buffer and substrate was then added to the plate (100 μL per well). The plate was shaken for 5 min and read using the Tristar […] luminometer. Data analysis was performed using Sigma Plot 10.0. All values shown are presented as means±SEM from two independent experiments (n=3).

[1] = test system: C. albicans, F. oxysporum, A. fumigatus, and C. neoformans; assay: Live cell imaging, fluorescent labelling of pathogenic fungi; design: dose or concentration left out as unconfirmed; conditions: 15 min incubation at 37° C. in RPMI
Method: The N. crassa mat A WT used for confocal live-cell imaging was grown on 100% Vogel's agar medium at 25° C. for 3-5 days before the spores were harvested. The A. fumigatus CEA10 strain used for confocal live-cell imaging was grown on 100% Vogel's medium at 37° C. for 4-5 days before the spores were harvested. Before the confocal experiments were performed, N. crassa spores were incubated in eight-well slide culture chambers for 3 h at 25° C. in liquid 10% Vogel's medium and A. fumigatus spores were incubated for 16 h at 25° C. in liquid 10% Vogel's medium in order to allow germination to fully take place for imaging.
Live-cell imaging of germinated fungi spores was performed using a Leica TCS SP8 confocal laser scanning microscope equipped with photo multiplier tubes (PMT), hybrid GaAsP (HyD) detectors and a 63× water immersion objective. A Leica turntable white light laser (WLL, 450-750 nm), argon laser (458 nm, 476 nm, 488 nm and 496 nm) and UV laser (405 nm) were used for fluorescence excitation.
The major pathogenic fungi include C. albicans, F. oxysporum, A. fumigatus, and C. neoformans.

[2] = test system: reconstructed cornea-like epithelium (RhCE, EpiOcular™); assay: Viability of reconstructed cornea-like epithelium (eye irritation model)
Method: (§4) FIG. 4a is a graph of the viability reconstructed cornea-like epithelium (RhCE, EpiOcular™) after incubation with MFIGA001. NC=Negative Control; PC=Positive Control. FIG. 4b is a graph of the viability reconstructed cornea-like epithelium (RhCE, EpiOcular™) after incubation with 10 µM of MFIGA001a and MFIGAF001b. NC=Negative Control; PC=Positive Control; A2=MFIGAF001a; and B1=MFIGAF001b.
(§5) MFIGAF001 was also assessed independently by a CRO (Evotec) in an OECD compliant reconstructed cornea-like epithelial cell model (RhCE, EpiOcular™).

[3] = as above; conditions: human, reconstructed cornea-like epithelium (RhCE, EpiOcular™)
Method: as §4, §5

Fusarium oxysporum = conditions: 24 h
Method: Dose dependent inhibition of fungal growth by all non-labelled peptides (indicated by IC50 values) was determined via this methodology. The assays were performed using Nunc 262162 U96 polystyrene round bottomed clear plates (www.nuncbrand.com).
as §1
When testing the peptides against N. crassa and F. oxysporum, experiments were carried as described above apart from the incubation temperature was changed to 25° C. for N. crassa and 35° C. for F. oxysporum.
as §2, §3

Compound | IC50 Aspergillus fumigatus (Aspergillus fumigatus) | Fluorescent labelling of pathogenic fungi [1] | Toxicity, reconstructed cornea-like epithelium (FIG. 4) [2] | viability at 10 µM [3] | IC50 Fusarium oxysporum (Fusarium oxysporum)
N=C(N)NCCC[C@@H]1NC(=O)CNC(=O)[C@H](CCCCNC(=O)c2cccc3c2C(=O)OC32c3ccc(O)cc3Oc3cc(O)ccc32)NC(=O)[C@H](Cc2c[nH]c3ccccc23)NC(=O)[C@H](Cc2ccccc2)NC(=O)[C@H](Cc2c[nH]c3ccccc23)NC(=O)[C@@H](Cc2ccccc2)NC(=O)[C@H](CCCCN)NC(=O)[C@H](CCCCN)NC1=O [MFIGAF001b, Cyclo(Arg-Lys-Lys-phe-Trp-Phe-Trp-Lys(CF)-Gly)] (cyclo(FWK(X2)GRKK[dF]W)) | 2.1 µg/mL (≈ 1.29 µM) | label all major pathogenic fungi that cause fungal keratitis | no obvious toxicity | 99.1% | 2.3 µg/mL (≈ 1.42 µM)
N=C(N)NCCC[C@@H]1NC(=O)CNC(=O)[C@H](Cc2c[nH]c3ccccc23)NC(=O)[C@H](Cc2ccccc2)NC(=O)[C@H](Cc2c[nH]c3ccccc23)NC(=O)[C@H]2CCCN2C(=O)[C@H](CCCCN)NC(=O)[C@H](CCCCN)NC1=O [MFIGAF008] | 5.5 µg/mL (≈ 5.06 µM) | – | – | – | 3.8 µg/mL (≈ 3.5 µM)
H-RKKWFW-NH2 [PAF26, NH2-Arg-Lys-Lys-Trp-Phe-Trp-CONH2, reference compound] | 8.0 µg/mL | – | – | – | 7.2 µg/mL
